Data reported in US11787775B2, “Therapeutic compounds and methods of use” (priority 2020, dated 2023).

Assays:
Assay type in all cases: binding
TEAD1 = TEAD1 (Homo sapiens (Human), UniProt P28347); assay: TEAD lipid pocket TR-FRET (Lipid HTRF) probe competition assay; settings: 30 mins incubation with compound; read-out: Lipid HTRF TEAD1 IC50
TEAD2 = TEAD2 (Homo sapiens (Human), UniProt Q15562); assay: as above; settings: 30 mins incubation with compound; read-out: Lipid HTRF TEAD2 IC50
TEAD3 = TEAD3 (Homo sapiens (Human), UniProt Q99594); assay: as above; settings: 30 mins incubation with compound
Chain of TEAD3 (Q99594 whole entry, species assumed): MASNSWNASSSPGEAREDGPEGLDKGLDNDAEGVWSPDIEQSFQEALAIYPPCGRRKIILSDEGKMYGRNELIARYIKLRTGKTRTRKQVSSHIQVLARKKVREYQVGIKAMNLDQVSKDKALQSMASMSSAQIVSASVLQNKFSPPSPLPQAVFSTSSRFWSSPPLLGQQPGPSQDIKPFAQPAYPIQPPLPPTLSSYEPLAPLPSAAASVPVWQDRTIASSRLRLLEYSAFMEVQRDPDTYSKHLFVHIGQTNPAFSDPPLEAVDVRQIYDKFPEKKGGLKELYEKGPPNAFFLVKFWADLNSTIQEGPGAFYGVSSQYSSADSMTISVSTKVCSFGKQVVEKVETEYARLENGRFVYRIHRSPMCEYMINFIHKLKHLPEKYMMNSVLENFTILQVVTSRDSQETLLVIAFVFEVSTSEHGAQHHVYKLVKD

TEAD4 = TEAD4 (Homo sapiens (Human), UniProt Q15561); assay: as above; settings: 30 mins incubation with compound; read-out: Lipid HTRF TEAD4 IC50
Chain of TEAD4 (Q15561 whole entry, species assumed): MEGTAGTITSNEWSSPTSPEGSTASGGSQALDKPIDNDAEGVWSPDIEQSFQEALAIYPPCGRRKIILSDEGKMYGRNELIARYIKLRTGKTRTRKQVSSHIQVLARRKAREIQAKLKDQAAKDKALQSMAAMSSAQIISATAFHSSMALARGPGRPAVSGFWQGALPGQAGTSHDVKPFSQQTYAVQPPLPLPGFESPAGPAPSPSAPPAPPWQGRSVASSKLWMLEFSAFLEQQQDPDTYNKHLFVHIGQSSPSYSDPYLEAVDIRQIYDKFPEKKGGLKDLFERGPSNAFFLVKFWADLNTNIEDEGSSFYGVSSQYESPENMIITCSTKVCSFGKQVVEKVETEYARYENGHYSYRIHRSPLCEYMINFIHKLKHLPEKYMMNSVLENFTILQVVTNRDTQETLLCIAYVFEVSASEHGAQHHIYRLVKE

TEAD1 YAP50-100 = TEAD1 YAP50-100 (Homo sapiens (Human), UniProt P28347); assay: TEAD-YAP protein-protein interaction HTRF assay; settings: TEAD1 YAP50-100 HTRF combined EC50, 30 mins incubation with compound
Chain of TEAD1 YAP50-100 (P28347 209-426): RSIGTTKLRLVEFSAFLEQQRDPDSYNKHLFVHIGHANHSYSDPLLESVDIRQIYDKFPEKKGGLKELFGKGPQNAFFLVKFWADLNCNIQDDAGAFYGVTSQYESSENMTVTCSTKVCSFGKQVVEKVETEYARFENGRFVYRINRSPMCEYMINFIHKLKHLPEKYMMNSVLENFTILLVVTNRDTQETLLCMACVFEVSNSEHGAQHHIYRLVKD
Experimental: (§1) Purified His-tagged TEAD protein (YAP Binding Domain, amino acids 217-447) is pre-incubated with Europium labelled anti-His antibody tracer (Perkin Elmer Cat #AD0110). Small molecule Inhibitors are then incubated with the TEAD-Eu protein complex for 30 minutes or 4 hours to allow for binding to TEAD protein. Biotinylated YAP peptide for TEAD-YAP assays (AA's 50-100) or biotinylated TAZ peptide for TEAD-TAZ assays (AA's 13-57) that has been pre-incubated with streptavidin −xl665 acceptor (CIS-Bio Cat #610SAXAC) or is added to the compound-TEAD mix. The TEAD-YAP-inhibitor mixture is then incubated for 60 minutes at room temperature. All reactions are carried out in a polystyrene plate. After 60 minutes, the plate is read on a plate reader using TR-FRET mode with wavelengths of 665 nm/615 nm. If YAP or TAZ binds to TEAD as expected, a TR-FRET signal results from the proximity of YAP or TAZ and TEAD after binding. If an inhibitor such as peptide 17 (Selleckchem Cat #S8164) interferes with YAP-TEAD or TAZ-TEAD binding, the disruption of the YAP or TAZ:TEAD interaction results in a decrease in TR-FRET signal. The potency of compounds as YAP:TEAD or TAZ:TEAD protein-protein interaction (PPi) inhibitors is determined by an IC50 or EC50 value generated using a non-linear four parameter curve fit. The extent to which representative examples of the disclosed compounds are able to inhibit interaction between TEAD1, TEAD2, TEAD3 or TEAD4 and YAP truncated from amino acids 50-100 or TAZ truncated from amino acids 13-57 as measured by Homogeneous Time Resolved Fluorescence (HTRF) to generate EC50 and IC50 data.
(§2) Note that the “Compound Number” in Table 4 corresponds to the “Compound Number” in Table 1. […]

TEAD2 YAP50-100 = TEAD2 YAP50-100 (Homo sapiens (Human), UniProt Q15562); assay: TEAD-YAP protein-protein interaction HTRF assay; settings: TEAD2 YAP50-100 HTRF combined EC50, 30 mins incubation with compound
Chain of TEAD2 YAP50-100 (Q15562 217-447): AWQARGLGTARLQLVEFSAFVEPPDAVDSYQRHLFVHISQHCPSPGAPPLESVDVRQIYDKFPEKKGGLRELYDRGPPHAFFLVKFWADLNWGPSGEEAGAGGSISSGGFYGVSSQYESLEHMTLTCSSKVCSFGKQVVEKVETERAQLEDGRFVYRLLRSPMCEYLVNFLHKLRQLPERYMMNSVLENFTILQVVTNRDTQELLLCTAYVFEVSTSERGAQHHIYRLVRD
Experimental: as §1, §2

TEAD3 YAP50-100 = TEAD3 YAP50-100 (Homo sapiens (Human), UniProt Q99594); assay: TEAD-YAP protein-protein interaction HTRF assay; settings: TEAD3 YAP50-100 HTRF combined EC50, 30 mins incubation with compound
Chain of TEAD3 YAP50-100 (Q99594 218-435): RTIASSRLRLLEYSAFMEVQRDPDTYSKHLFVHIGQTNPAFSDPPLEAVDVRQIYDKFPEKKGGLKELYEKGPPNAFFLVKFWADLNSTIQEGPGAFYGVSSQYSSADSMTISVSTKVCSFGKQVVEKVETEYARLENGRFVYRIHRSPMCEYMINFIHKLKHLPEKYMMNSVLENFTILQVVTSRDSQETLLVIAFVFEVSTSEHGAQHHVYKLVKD
Experimental: as §1, §2

TEAD4 YAP50-100 = TEAD4 YAP50-100 (Homo sapiens (Human), UniProt Q15561); assay: TEAD-YAP protein-protein interaction HTRF assay; settings: TEAD4 YAP50-100 HTRF combined EC50, 30 mins incubation with compound
Chain of TEAD4 YAP50-100 (Q15561 217-434): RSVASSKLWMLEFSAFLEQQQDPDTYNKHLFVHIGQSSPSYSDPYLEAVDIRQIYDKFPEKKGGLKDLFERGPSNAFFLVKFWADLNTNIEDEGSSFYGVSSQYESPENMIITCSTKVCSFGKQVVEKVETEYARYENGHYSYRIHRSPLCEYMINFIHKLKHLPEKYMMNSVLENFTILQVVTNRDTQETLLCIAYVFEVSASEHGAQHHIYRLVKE
Experimental: as §1, §2

Chain of TEAD2 (Q15562 whole entry): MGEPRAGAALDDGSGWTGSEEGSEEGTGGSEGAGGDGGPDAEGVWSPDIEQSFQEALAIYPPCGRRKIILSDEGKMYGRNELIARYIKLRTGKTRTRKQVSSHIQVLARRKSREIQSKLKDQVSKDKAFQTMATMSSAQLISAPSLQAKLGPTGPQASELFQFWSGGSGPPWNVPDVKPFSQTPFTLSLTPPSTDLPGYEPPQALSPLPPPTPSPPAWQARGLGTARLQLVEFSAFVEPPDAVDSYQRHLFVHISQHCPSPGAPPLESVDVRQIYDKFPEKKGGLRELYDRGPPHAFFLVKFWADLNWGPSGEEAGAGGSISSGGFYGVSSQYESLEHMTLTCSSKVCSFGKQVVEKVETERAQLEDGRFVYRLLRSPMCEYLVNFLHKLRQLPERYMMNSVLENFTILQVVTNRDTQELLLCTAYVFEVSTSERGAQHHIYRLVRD
Chain of TEAD1 (P28347 whole entry, species assumed): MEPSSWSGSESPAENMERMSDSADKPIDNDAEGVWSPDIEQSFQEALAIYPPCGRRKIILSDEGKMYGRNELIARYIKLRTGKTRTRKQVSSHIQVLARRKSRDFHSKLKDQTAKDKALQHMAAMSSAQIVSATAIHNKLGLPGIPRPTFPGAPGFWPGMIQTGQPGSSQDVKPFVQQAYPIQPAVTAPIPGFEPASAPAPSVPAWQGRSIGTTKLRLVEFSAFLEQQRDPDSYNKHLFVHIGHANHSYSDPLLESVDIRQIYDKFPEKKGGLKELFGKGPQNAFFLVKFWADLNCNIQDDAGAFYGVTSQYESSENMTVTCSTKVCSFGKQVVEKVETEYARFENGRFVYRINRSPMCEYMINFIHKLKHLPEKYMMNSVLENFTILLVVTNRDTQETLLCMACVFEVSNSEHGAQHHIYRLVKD

SMILES	IC50 (TEAD1)	IC50 (TEAD2)	IC50 (TEAD3)	IC50 (TEAD4)	EC50 (TEAD1 YAP50-100)	EC50 (TEAD2 YAP50-100)	EC50 (TEAD3 YAP50-100)	EC50 (TEAD4 YAP50-100)
C=C(CNc1cc(-c2ccc(C(C)C)cc2)c2c(c1C#N)CCO2)C(=O)NO [Compound 9, 2-[[[4-cyano-7-(4-isopropylphenyl)-2,3-dihydrobenzofuran-5-yl]amino]methyl]prop-2-enehydroxamic acid]	280 nM	110 nM	2400 nM	120 nM	190 nM	50 nM	2.2 µM	280 nM
C=C(CNc1cc(-c2ccc(C(C)C)cc2)c2c(c1C#N)CCO2)C(C)=O [Compound 11, 7-(4-isopropylphenyl)-5-[(2-methylene-3-oxo-butyl)amino]-2,3-dihydrobenzofuran-4-carbonitrile]	180 nM	80 nM	130 nM	40 nM	320 nM	130 nM	0.2 µM	80 nM
C=C(CNc1cc(-c2ccc(C(C)(F)F)cc2)c2c(c1C#N)CCO2)C(=O)O [Compound 19, 2-[[[4-cyano-7-[4-(1,1-difluoroethyl)phenyl]-2,3-dihydrobenzofuran-5-yl]amino]methyl]prop-2-enoic acid]	50 nM	350 nM	6400 nM	110 nM	40 nM	190 nM	15 µM	230 nM
C=C(CNc1cc(-c2ccc(C(C)(F)F)cc2)c2ncsc2c1C#N)C(=O)O [Compound 24, 2-[[[7-cyano-4-[4-(1,1-difluoroethyl)phenyl]-1,3-benzothiazol-6-yl]amino]methyl]prop-2-enoic acid]	160 nM	740 nM	20000 nM	370 nM	80 nM	260 nM	15 µM	> 50000 nM
C=C(CNc1cc(-c2ccc(C(C)C)cc2)c2c(c1C#N)CCO2)C(=O)O [Compound 3, 2-[[[4-cyano-7-(4-isopropylphenyl)-2,3-dihydrobenzofuran-5-yl]amino]methyl]prop-2-enoic acid]	20 nM	60 nM	2880 nM	20 nM	20 nM	30 nM	6.22 µM	30 nM
